# Measured values reported in patent publication US12156920B2, “Double-labeled probe for molecular imaging and use thereof” (Deutsches Krebsforschungszentrum, priority 2017, dated 2024).
# “And” between values parts separate entries of the source, which are not always exact repeats. Equal values may be shown once.
# Assays:
# [1] = target: T1, PSMA (Homo sapiens, UniProt Q04609); test: Competitive cell binding assay on LNCaP cells (PSMA binding affinity); settings: competition against 0.2 nM 68Ga-labeled PSMA-10
# T1 construct: endogenous in cells; host or cells: LNCaP cells (ATCC CRL-1740)
# Procedure: (§1) PSMA^+ LNCaP cells (ATCC CRL-1740) were cultured in RPMI medium supplemented with 10% fetal calf serum and 2 mmol/L L-glutamine (all from PAA). Cells were grown at 37° C. in humidified air with 5% CO2 and were harvested using trypsin-ethylenediaminetetraacetic acid (trypsin-EDTA; 0.25% trypsin, 0.02% EDTA, Invitrogen).
# The competitive cell binding assay and internalization experiments were performed as described previously (4). Briefly, the cells (10^5 per well) were incubated with a 0.2 nM solution of ^68Ga-labeled radioligand [Glu-urea-Lys(Ahx)]2-HBED-CC (PSMA-10, precursor ordered from ABX, Radeberg, Germany) in the presence of 12 different concentrations of analyte (0-5000 nM, 100 μL/well). After incubation, the mixture was removed and the wells were washed 3 times with PBS using a multiscreen vacuum manifold (Millipore, Billerica, Mass.). Cell-bound radioactivity was measured using a gamma counter (Packard Cobra II, GMI, Minnesota, USA). The 50% inhibitory concentration (IC50) values were calculated by fitting the data using a nonlinear regression algorithm (GraphPad Software).
# [2] = system: PSMA+ LNCaP cells; test: Internalization experiments (specific cell surface bound and internalized fractions); assay type: cell-based; settings: 68Ga-labeled compound 30 nM, 45 min
# Procedure: as §1
# For internalization experiments, 10^5 cells per well were seeded in poly-L-lysine coated 24-well cell culture plates 24 h before incubation. After washing, the cells were incubated with 30 nM of the radiolabeled compound for 45 min at 37° C. and at 4° C., respectively. Cellular uptake was terminated by washing 3 times with 1 mL of ice-cold PBS. To remove surface-bound radioactivity, cells were incubated twice with 0.5 mL glycine-HCl in PBS (50 mM, pH=2.8) for 5 min. The cells were washed with 1 mL of ice-cold PBS and lysed using 0.3 N NaOH (0.5 mL). The surface-bound and the internalized fractions were measured in a gamma counter. The cell uptake was calculated as percent of the initially added radioactivity bound to 10^5 cells [% ID/10^5 cells].
# [3] = system: LNCaP-tumor bearing balb/c nu/nu mice; test: Biodistribution (organ distribution) of 68Ga-labeled compounds; assay type: in vivo; settings: 68Ga labeled
# Procedure: (§2) The precursor peptides [1 nmol in HEPES buffer (580 mg/ml), 90 μL] were added to 40 μL [^68Ga]Ga^3+ eluate (˜40 MBq). The pH was adjusted to 3.8 using 30% NaOH and 10% NaOH, respectively. The reaction mixture was incubated at 98° C. for 10 minutes. The radiochemical yield (RCY) was determined by HPLC. For the experimental tumor models 5×10^6 cells of LNCaP (in 50% Matrigel; Becton Dickinson, Heidelberg, Germany) were subcutaneously inoculated into the right trunk of 7- to 8-week-old male BALB/c nu/nu mice (Charles River). The tumors were allowed to grow until approximately 1 cm^3 in size. The ^68Ga-labeled compounds were injected into a tail vein (1-2 MBq; 60 pmol). […] Organs of interest were dissected, blotted dry, and weighed. The radioactivity was measured using a gamma counter and calculated as % ID/g. All animal experiments complied with the current laws of the Federal Republic of Germany.
# [4] = as above; assay type: in vivo, mice; settings: male, BALB/c nu/nu, mouse, in vivo, iv, 60 pmol, total radioactivity
# Procedure: as §2
# T1 sequence (Q04609 whole entry): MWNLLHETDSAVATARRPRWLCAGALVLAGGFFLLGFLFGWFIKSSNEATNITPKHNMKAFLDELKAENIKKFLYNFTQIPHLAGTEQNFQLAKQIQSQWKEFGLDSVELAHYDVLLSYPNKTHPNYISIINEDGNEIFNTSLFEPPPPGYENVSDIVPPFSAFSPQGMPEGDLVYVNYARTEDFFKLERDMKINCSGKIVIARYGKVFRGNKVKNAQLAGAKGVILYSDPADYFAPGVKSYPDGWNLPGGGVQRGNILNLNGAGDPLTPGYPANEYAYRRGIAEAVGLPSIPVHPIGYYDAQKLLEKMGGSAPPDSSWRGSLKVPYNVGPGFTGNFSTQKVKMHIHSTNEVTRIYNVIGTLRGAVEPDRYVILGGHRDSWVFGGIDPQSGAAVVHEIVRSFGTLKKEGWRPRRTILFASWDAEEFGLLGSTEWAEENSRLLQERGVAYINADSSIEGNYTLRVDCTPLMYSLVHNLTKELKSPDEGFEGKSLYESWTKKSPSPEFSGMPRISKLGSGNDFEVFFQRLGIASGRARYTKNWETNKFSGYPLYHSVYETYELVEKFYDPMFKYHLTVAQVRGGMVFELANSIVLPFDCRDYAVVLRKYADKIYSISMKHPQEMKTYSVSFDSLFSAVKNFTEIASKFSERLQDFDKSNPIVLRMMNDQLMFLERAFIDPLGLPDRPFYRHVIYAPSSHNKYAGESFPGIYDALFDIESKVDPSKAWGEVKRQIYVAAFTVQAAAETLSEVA
compound,measurement,setting,value
"O=C(O)CCc1ccc(O)c(CN(CCN(CC(=O)O)Cc2cc(CCC(=O)NCCCCCC(=O)NCCCCC(NC(=O)NC(CCC(=O)O)C(=O)O)C(=O)O)ccc2O)CC(=O)O)c1 (stereo not drawn) [PSMA-11, Glu-urea-Lys-(Ahx)-HBED-CC, reference compound]",Ki,[1],9.82 ± 1.26 nM
same,Specific cell surface bound,[2],2.31 ± 0.61 % ID/10^5 cells
same,Specific internalized,[2],3.57 ± 0.51 % ID/10^5 cells
same,Organ distribution Liver,[3],0.34 % ID/g
same,Organ distribution Lung,[3],1.19 % ID/g
same,Tumor-to-Organ ratio T/Blood,[3]; 1 h p.i.,9.23
same,Tumor-to-Organ ratio T/Brain,[3]; 1 h p.i.,12.23
same,Tumor-to-Organ ratio T/Heart,[3]; 1 h p.i.,5.89
same,Tumor-to-Organ ratio T/Intestine,[3]; 1 h p.i.,4.29
same,Tumor-to-Organ ratio T/Kidney,[3]; 1 h p.i.,0.04
same,Tumor-to-Organ ratio T/Liver,[3]; 1 h p.i.,3.42
same,Tumor-to-Organ ratio T/Lung,[3]; 1 h p.i.,2.07
same,Tumor-to-Organ ratio T/Muscle,[3]; 1 h p.i.,4.89
same,Tumor-to-Organ ratio T/Spleen,[3]; 1 h p.i.,0.27
same,Organ distribution Tumor (tumor accumulation),"[3]; 1 h p.i., LNCaP tumor",4.89±1.34 % ID/g and 4.89 % ID/g
same,Organ distribution Blood,"[3]; 1 h p.i., tail vein",0.53 % ID/g
same,Organ distribution Brain,"[3]; 1 h p.i., tail vein",0.40 % ID/g
same,Organ distribution Heart,"[3]; 1 h p.i., tail vein",0.83 % ID/g
same,Organ distribution Intestine,"[3]; 1 h p.i., tail vein",1.14 % ID/g
same,Organ distribution Kidney,"[3]; 1 h p.i., tail vein",139.44 % ID/g
same,Organ distribution Liver,"[3]; 1 h p.i., tail vein",1.43 % ID/g
same,Organ distribution Lung,"[3]; 1 h p.i., tail vein",2.36 % ID/g
same,Organ distribution Muscle,"[3]; 1 h p.i., tail vein",1.00 % ID/g
same,Organ distribution Spleen,"[3]; 1 h p.i., tail vein",17.88 % ID/g
same,Organ distribution Blood,[3]; 2 h p.i.,0.32 % ID/g
same,Organ distribution Brain,[3]; 2 h p.i.,0.23 % ID/g
same,Organ distribution Heart,[3]; 2 h p.i.,0.31 % ID/g
same,Organ distribution Intestine,[3]; 2 h p.i.,1.19 % ID/g
same,Organ distribution Kidney,[3]; 2 h p.i.,129.73 % ID/g
same,Organ distribution Muscle,[3]; 2 h p.i.,2.06 % ID/g
same,Organ distribution Spleen,[3]; 2 h p.i.,12.41 % ID/g
same,Organ distribution Tumor,"[3]; 2 h p.i., LNCaP tumor",6.09 % ID/g
"CC1(C)C(/C=C/C2=C(Oc3ccc(S(=O)(=O)O)cc3)C(=C\C=C3/N(CCCCS(=O)(=O)O)c4ccc(S(=O)(=O)O)cc4C3(C)C)/CCC2)=[N+](CCCCCC(=O)NCCOCCOCCNC(=O)CCc2ccc(O)c(CN(CCN(CC(=O)O)Cc3cc(CCC(=O)NCc4cn(CCCCC(=O)NC(CCC(=O)O)C(=O)NC(Cc5cnc[nH]5)C(=O)NCCCCC(NC(=O)NC(CCC(=O)O)C(=O)O)C(=O)O)nn4)ccc3O)CC(=O)O)c2)c2ccc(S(=O)(=O)O)cc21 (stereo not drawn) [PSMA-(HE)1-HBED-CC-PEG2-IRDye800CW, Glu-urea-Lys-(HE)1-HBED-CC-PEG2-IRDye800CW]",tissue uptake at 1 h,[4]; Organ distribution Blood,1.52 %ID/g
same,tissue uptake at 1 h,[4]; Organ distribution Brain,0.3 %ID/g
same,tissue uptake at 1 h,[4]; Organ distribution Heart,0.94 %ID/g
same,tissue uptake at 1 h,[4]; Organ distribution Intestine,1.29 %ID/g
same,tissue uptake at 1 h,[4]; Organ distribution Kidney,84.3 %ID/g
same,tissue uptake at 1 h,[4]; Organ distribution Liver,1.19 %ID/g
same,tissue uptake at 1 h,[4]; Organ distribution Lung,2.46 %ID/g
same,tissue uptake at 1 h,[4]; Organ distribution Muscle,1.03 %ID/g
same,tissue uptake at 1 h,[4]; Organ distribution Spleen,8.17 %ID/g
same,tissue uptake at 1 h,[4]; Organ distribution Tumor (tumor accumulation),3.92 %ID/g
same,tissue to tissue ratio at 1 h,[4]; Tumor-to-Organ ratio T/Blood,2.58
same,tissue to tissue ratio at 1 h,[4]; Tumor-to-Organ ratio T/Brain,13
same,tissue to tissue ratio at 1 h,[4]; Tumor-to-Organ ratio T/Heart,4.19
same,tissue to tissue ratio at 1 h,[4]; Tumor-to-Organ ratio T/Intestine,3.05
same,tissue to tissue ratio at 1 h,[4]; Tumor-to-Organ ratio T/Kidney,0.05
same,tissue to tissue ratio at 1 h,[4]; Tumor-to-Organ ratio T/Liver,3.3
same,tissue to tissue ratio at 1 h,[4]; Tumor-to-Organ ratio T/Lung,1.6
same,tissue to tissue ratio at 1 h,[4]; Tumor-to-Organ ratio T/Muscle,3.81
same,tissue to tissue ratio at 1 h,[4]; Tumor-to-Organ ratio T/Spleen,0.48
